Biological target: T1, CD209 antigen (Homo sapiens, UniProt Q9NNX6)
T1 sequence (Q9NNX6 whole entry): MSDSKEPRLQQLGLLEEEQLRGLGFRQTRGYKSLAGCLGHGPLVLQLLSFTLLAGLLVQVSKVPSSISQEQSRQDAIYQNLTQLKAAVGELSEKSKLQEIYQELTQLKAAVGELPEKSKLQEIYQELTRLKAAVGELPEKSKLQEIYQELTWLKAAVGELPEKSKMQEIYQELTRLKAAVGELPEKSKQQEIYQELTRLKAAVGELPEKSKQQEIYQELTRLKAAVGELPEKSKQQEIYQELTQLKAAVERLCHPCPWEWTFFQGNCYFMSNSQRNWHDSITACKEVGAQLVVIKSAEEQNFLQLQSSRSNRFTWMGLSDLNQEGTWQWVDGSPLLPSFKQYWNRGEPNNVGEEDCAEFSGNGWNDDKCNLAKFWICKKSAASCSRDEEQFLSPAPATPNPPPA
Assay: Inhibition of binding of immobilized mannosylated BSA to DC-SIGN extracellular domain (66 to 404 residues) (unknown origin) expressed in Escherichia coli by SPR assay

IC50 | Structure (SMILES)
776 µM | COC(=O)[C@H]1C[C@H](OC(=O)C(C)(C)C)[C@@H](S[C@H]2O[C@H](CO)[C@@H](O)[C@H](O)[C@@H]2O)C[C@@H]1C(=O)OC
776 µM | COC(=O)[C@H]1C[C@H](OC)[C@@H](S[C@H]2O[C@H](CO)[C@@H](O)[C@H](O)[C@@H]2O)C[C@@H]1C(=O)OC
720 µM | COC(=O)[C@H]1C[C@H](OC)[C@@H](O[C@H]2O[C@H](CO)[C@@H](O)[C@H](O)[C@@H]2O)C[C@@H]1C(=O)OC

— ChEMBL document CHEMBL4043086, “Facile access to pseudo-thio-1,2-dimannoside, a new glycomimetic DC-SIGN antagonist” (Bioorg Med Chem, 2017)
